Laboratory results from PubChem BioAssay (NCI).
“And” between values parts separate entries of the source, which are not always exact repeats. Identical values can stand only once.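 Cells were grown in 96-well plates and exposed to each compound for 48 hours at five concentrations; endpoints were interpolated linearly between bracketing concentrations, or set to the highest concentration if not reached. GI50: concentration for 50% inhibition of growth. Definition used: TGI = concentration required for complete inhibition of growth.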

How the values were obtained:
Assay in all cases: growth of human tumour cells (NCI), 48 h
LOX IMVI melanoma = test system: LOX IMVI melanoma
CCRF-CEM leukemia = test system: CCRF-CEM leukemia
SK-OV-3 ovarian = test system: SK-OV-3 ovarian
SK-MEL-5 melanoma = test system: SK-MEL-5 melanoma
NCI-H522 lung = test system: NCI-H522 lung
UACC-62 melanoma = test system: UACC-62 melanoma
NCI-H23 lung = test system: NCI-H23 lung
HCT-116 colon = test system: HCT-116 colon
SF-268 CNS = test system: SF-268 CNS

Row | SMILES | GI50 (LOX IMVI melanoma) [nM] | TGI (LOX IMVI melanoma) | GI50 (CCRF-CEM leukemia) [nM] | TGI (CCRF-CEM leukemia) | GI50 (SK-OV-3 ovarian) [µM] | TGI (SK-OV-3 ovarian) | GI50 (SK-MEL-5 melanoma) [nM] | TGI (SK-MEL-5 melanoma) | GI50 (NCI-H522 lung) [nM] | TGI (NCI-H522 lung) | GI50 (UACC-62 melanoma) [nM] | TGI (UACC-62 melanoma) | GI50 (NCI-H23 lung) [µM] | TGI (NCI-H23 lung) | GI50 (HCT-116 colon) [nM] | TGI (HCT-116 colon) | GI50 (SF-268 CNS) [µM] | TGI (SF-268 CNS)
1 | O=C(CCl)N1c2ccccc2Oc2ccc3ccccc3c21 | 347 | 1.41 µM | 163 | 3.39 µM | 2.51 | 6.09 µM | 1590 | 2.98 µM | 614 | 1.9 µM | 1570 | 3 µM | 1.31 | 3.08 µM | 358 | 1.29 µM | 1.52 | 2.94 µM
2 | O=C1NNC(=O)c2ccccc2SSc2ccccc2C(=O)NNC(=O)c2ccccc2SSc2ccccc21 | 7020 | 50 µM and > 100 µM | 1990 | 35 µM and 11.8 µM | > 100 | 50 µM and > 100 µM | 42100 | 50 µM and > 100 µM | 3430 | 50 µM and 14.5 µM | 8340 | 50 µM and > 100 µM | 7.63 | 50 µM and 59.8 µM | 5050 | 50 µM and > 100 µM | 9.81 | 30.2 µM and > 100 µM
3 | CC[C@@]12CCCN3CC[C@]4(c5cccc(OC)c5N(C(C)=O)[C@@H]4CC1)[C@H]32 | – | > 100 µM | – | 57.1 µM | – | > 100 µM | – | > 100 µM | – | > 100 µM | – | > 100 µM | – | > 100 µM | – | > 100 µM | – | > 100 µM
4 | CCOC(=O)Nc1nc2ccc(OCC)cc2s1 | 41700 | > 100 µM | > 100000 | > 100 µM | > 100 | > 100 µM | 5560 | > 100 µM | 6490 | > 100 µM | 13400 | > 100 µM | > 100 | > 100 µM | 6420 | > 100 µM | 84.6 | > 100 µM
5 | CN(C)c1ccc(-c2cc(-c3ccc(Nc4nc(Nc5ccc(Cl)cc5)nc(Nc5ccc(Cl)cc5)n4)cc3)no2)cc1 | 4220 | 35.6 µM | 2340 | 6.47 µM | 20 | 67 µM | 2070 | 9.07 µM | 2570 | 11.3 µM | 17100 | 62.2 µM | 6.41 | 35.8 µM | 2840 | 11.8 µM | 5.02 | 21.6 µM
6 | Cn1ccnc1C(=O)/C=C/c1ccc(CC(=O)Nc2ccc(Br)cc2)cc1 | 2070 | 4.28 µM | 3040 | > 16.7 µM | 8.88 | > 16.7 µM | 3580 | 8.25 µM | 3830 | 8.25 µM | 2800 | 5.73 µM | 2.75 | 7.1 µM | 1560 | 4.63 µM | 3.34 | 13 µM
7 | Nc1cc2nc3ccccc3sc-2cc1=O | 1480 | 3.74 µM | 2470 | > 100 µM | 13.1 | 53.5 µM | 1550 | 2.93 µM | 2460 | 5.87 µM | 1550 | 3.33 µM | 1.54 | 3.76 µM | 2560 | 10.3 µM | 2.53 | 8.67 µM
8 | Cc1ccc(-c2nnc(-c3ccc4ccccc4c3)o2)cc1 | – | > 100 µM | – | > 25 µM | – | > 100 µM | – | > 100 µM | – | > 100 µM | – | > 85.6 µM | – | > 100 µM | – | > 100 µM | – | > 100 µM
9 | Cc1cc(=O)n2[nH]c(-c3ccc(C(C)(C)C)cc3)cc2n1 | 7390 | 61.6 µM | 4190 | > 100 µM | 6.8 | 86 µM | 1820 | 12.1 µM | 3420 | 43 µM | 3830 | > 100 µM | 4.03 | 80.6 µM | 8250 | > 100 µM | 7.85 | 72.8 µM
10 | O[C@H]1[C@H]2c3cc4c(cc3CN3CCC(=C[C@@H]1O)[C@H]23)OCO4 | – | 5.06 µM | – | 7.51 µM | – | 20.5 µM | – | 6.91 µM | – | 3.07 µM | – | 7.95 µM | – | 13.7 µM | – | > 100 µM | – | 3.57 µM
11 | COc1cc2nc(C)nc(N[C@H](C)c3cc(N)cc(C(F)(F)F)c3)c2cc1O[C@H]1CCOC1 | 12200 | 28.1 µM | 13500 | 49.3 µM | 14.2 | 28.3 µM | 13400 | 26.5 µM | 12800 | 29.3 µM | 16300 | 31 µM | 13.2 | 30.6 µM | 11400 | 29.6 µM | 12.5 | 31.6 µM
12 | CNC(=O)c1ccccc1Nc1nc(Nc2ccc(N3CCOCC3)cc2OC)ncc1Cl | 401 | 3.17 µM | 531 | > 81.9 µM | 0.543 | 3.7 µM | 1680 | > 37.8 µM | 764 | 9.66 µM | 239 | 2.73 µM | 0.571 | > 43.8 µM | 537 | > 35.3 µM | 1.57 | > 100 µM
13 | Cc1cnc(NC(=O)C(Cc2ccccc2)NC(=O)c2ccccc2)s1 (stereo not drawn) | 6250 | 19.3 µM | 34700 | > 100 µM | 22.9 | 71.6 µM | 1690 | 3.85 µM | 1530 | 21.8 µM | 1450 | 3.7 µM | 3.83 | 23.8 µM | 2960 | 11.9 µM | 23.2 | 54.7 µM
14 | O=C1c2cccnc2-c2nc(-c3ccccc3[N+](=O)[O-])cc3c2c1nc1ccccc13 | 2840 | 13.7 µM | > 100000 | > 100 µM | 67 | > 100 µM | 2600 | 8.23 µM | 2100 | 6.4 µM | 9900 | 40.9 µM | 3.67 | 18.9 µM | 5830 | 16.7 µM | 6.39 | > 69.1 µM
15 | Cc1cc(=O)[nH]c2cc3oc4ccccc4c3cc12 | – | > 100 µM | – | > 75.9 µM | – | > 100 µM | – | > 100 µM | – | > 100 µM | – | > 100 µM | – | > 100 µM | – | > 100 µM | – | > 93.7 µM
16 | O=C(Nc1ccc(F)cc1F)c1cc(I)ccc1O | 3310 | 17.6 µM | 4050 | > 100 µM | 1.12 | 4.27 µM | 1700 | 3.35 µM | 2730 | 14.1 µM | 1460 | 4.49 µM | 2.72 | 10.4 µM | 2530 | 7.6 µM | 3 | 47.4 µM
17 | C=C(CNCCO)[C@@H]1CC[C@]2(CO)CC[C@]3(C)[C@H](CC[C@@H]4[C@@]5(C)CCC(N)C(C)(C)[C@@H]5CC[C@]43C)[C@@H]12 (stereo partly drawn) | 1700 | 3.2 µM | 2040 | 5.93 µM | 11.1 | 23.3 µM | 1730 | 3.18 µM | 1930 | 3.7 µM | 1800 | 3.36 µM | 4.66 | 17.6 µM | 1810 | 3.84 µM | 2.61 | 10.3 µM
18 | COc1cc(/C=C/c2cc(/C=C/c3ccc(O)c(OC)c3)n(C(=O)Nc3ccc(F)cc3)n2)ccc1O | 476 | 4.26 µM | 367 | 9.57 µM | 1.04 | 4.33 µM | 418 | 3.25 µM | 250 | 1.21 µM | 817 | 6.68 µM | 0.727 | 4.45 µM | 422 | 10.3 µM | 0.602 | 10 µM
19 | NC1CCC(Nc2nc(NCc3ccc(-c4ccco4)nc3)c3ncn(C4CCCC4)c3n2)CC1 (stereo not drawn) | – | 21.9 µM | 36.2 | 1.88 µM | 0.049 | 15.6 µM | 91.3 | 1.02 µM | 16.4 | 0.0737 µM | 37.7 | 0.223 µM | 0.0264 | 0.0953 µM | 32.4 | 11.1 µM | 0.011 | 0.169 µM and 1.3 µM
20 | O=C(Nc1ccc(I)cc1)c1cc([N+](=O)[O-])ccc1O | 4440 | 61 µM | 3690 | 50.1 µM | 6.15 | > 100 µM | 3630 | 18.6 µM | 2920 | 15.9 µM | 3380 | 14.1 µM | 4.07 | > 100 µM | 6210 | 31.7 µM | 7.03 | > 100 µM
21 | COC(=O)Nc1nc2ccc(S(=O)c3ccccc3)cc2[nH]1 (stereo not drawn) | 5960 | > 100 µM | 5160 | > 100 µM | 3.23 | 12.4 µM | 2830 | > 100 µM | 2790 | 40.2 µM | 4440 | > 100 µM | 8.79 | > 100 µM | 3500 | > 100 µM | > 100 | > 100 µM
22 | O=C1C2=C(SCCS2)C(=O)c2ccccc21 | – | 2.27 µM | – | 4.2 µM | – | 3.12 µM | – | 3.09 µM | – | 3.17 µM | – | 3.04 µM | – | 3.34 µM | – | 3.04 µM | – | 3.05 µM
23 | CCOc1ccccc1-n1c(CN2CCN(C(=O)COc3ccc(CNCCCCCCN4C5CCCC4CC(OC(=O)Nc4cc(C)ccc4OC)C5)cc3)CC2)nc2ccccc2c1=O (stereo not drawn) | 582 | 1.08 µM | 160 | 1.21 µM | 1.89 | 3.45 µM | 1520 | 2.92 µM | 1790 | 3.45 µM | 1770 | 3.22 µM | 1.93 | 3.66 µM | 616 | 1.32 µM | 1.44 | 2.99 µM
24 | NC(CSC(c1ccccc1)(c1ccccc1)c1ccc2c(c1)OCO2)C(=O)O (stereo not drawn) | 577 | > 43.6 µM | 306 | > 41.5 µM | 0.42 | > 100 µM | 365 | 5.01 µM | 208 | 0.535 µM | 570 | > 62.9 µM | 0.545 | 32 µM | 358 | 29.6 µM | 0.82 | > 77.6 µM
25 | CCCCCCCCSC1=CC(=O)c2nc3ccccc3c3ccnc1c23 | > 100000 | > 100 µM | 60700 | > 100 µM | > 100 | > 100 µM | 98800 | > 100 µM | 62800 | > 100 µM | 42000 | > 100 µM | 58.2 | > 100 µM | 43100 | > 100 µM | 24.7 | > 100 µM
26 | COc1ccc(-c2cc(-c3ccc(Nc4nc(Nc5ccccc5)nc(Nc5ccc(Cl)cc5)n4)cc3)nc(N)c2C#N)cc1 | 837 | 1.58 µM | 1700 | > 50 µM | > 28.3 | > 50 µM | 1180 | 3.03 µM | 1160 | 3.38 µM | 1470 | 6.73 µM | 1.72 | 13.6 µM | 675 | 1.37 µM | 1.04 | 2.49 µM
27 | O=[N+]([O-])c1cnc(Sc2ccncn2)s1 | 2650 | 6.7 µM | 1510 | 3.53 µM | 21.2 | 45.4 µM | 4860 | 14.6 µM | 1620 | 3.34 µM | 6120 | 16.9 µM | 8.99 | 26.4 µM | 1840 | 3.33 µM | 2.65 | 7.29 µM
28 | COc1ccc(C2=CSc3cc(Cl)c(C)cc3S(=O)(=O)N2C(C)=O)cc1 | 21000 | > 100 µM | 38600 | > 100 µM | 60.6 | > 100 µM | 19900 | 48.5 µM | 53900 | > 100 µM | 13100 | 48 µM | 36.4 | > 100 µM | 21300 | 52.5 µM | 29.1 | > 100 µM
